According to patent US8574837B2, “System for screening agonists/antagonists of cellular signaling pathways” (President and Fellows of Harvard College, priority 2008, dated 2013):

Tests used:
Smo [1] = biological target: T1, Smo (Homo sapiens, UniProt Q99835); assay: Smo translocation assay (A1::Smo::GFP / Smo colocalization with Arl13b at the primary cilium); type: cell-based; conditions: for Smo translocation to the primary cilium, agent applied alone: NIH/3T3 cells, ShhN 25 nM, SAG 200 nM, purmorphamine, 20-OHC, cyclopamine, GANT61 10 μM, SANT-1, SANT-2 1 μM, 24 hr; for ShhN-dependent translocation of Smo to the primary cilium, antagonist plus ShhN: ShhN 25 nM plus SANT-1 or SANT-2 1 μM or GANT61 10 μM, FIG. 6
T1 construct: expressed in transfected cells; host or cells: NIH/3T3 (mouse fibroblasts), retroviral infection with pBabe-A1::Smo::GFP, clonal lines
T1 sequence (Q99835 28-787): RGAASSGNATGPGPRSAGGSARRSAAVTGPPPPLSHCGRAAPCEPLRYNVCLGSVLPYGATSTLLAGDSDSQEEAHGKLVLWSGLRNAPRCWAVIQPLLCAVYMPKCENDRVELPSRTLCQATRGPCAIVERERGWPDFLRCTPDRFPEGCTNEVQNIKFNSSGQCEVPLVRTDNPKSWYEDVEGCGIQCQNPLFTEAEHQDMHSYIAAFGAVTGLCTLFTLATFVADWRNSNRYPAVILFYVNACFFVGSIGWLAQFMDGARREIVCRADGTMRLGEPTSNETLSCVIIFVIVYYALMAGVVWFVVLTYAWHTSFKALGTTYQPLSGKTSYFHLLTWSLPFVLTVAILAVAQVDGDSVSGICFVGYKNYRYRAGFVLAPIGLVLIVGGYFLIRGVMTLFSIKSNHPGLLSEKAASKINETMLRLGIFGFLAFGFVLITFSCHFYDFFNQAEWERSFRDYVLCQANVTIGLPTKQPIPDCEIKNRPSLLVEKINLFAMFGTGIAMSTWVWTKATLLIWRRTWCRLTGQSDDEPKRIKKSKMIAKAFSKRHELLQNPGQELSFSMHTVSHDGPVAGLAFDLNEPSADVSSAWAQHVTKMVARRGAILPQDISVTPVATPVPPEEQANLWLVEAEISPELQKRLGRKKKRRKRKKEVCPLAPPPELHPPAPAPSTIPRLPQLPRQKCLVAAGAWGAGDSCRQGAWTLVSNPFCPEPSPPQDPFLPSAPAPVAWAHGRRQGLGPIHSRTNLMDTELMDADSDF
Experimental: All 3T3 cell lines were plated at a density of 1×10^4 cells per well in fibronectin coated Lab-Tek™ Chamber Slides (Nunc, 178599). The cells were grown to confluence, then switched to […] containing 0.5% BCS with indicated treatments for 24 hr or as stated elsewhere herein. Immunostaining was performed after fixation in 4% Paraformaldehyde (PFA) according to standard protocols. AcpS labeling reactions were performed as described previously (Zhou et al., 2007). Fluorescent images were collected after fixing samples using a Zeiss LSM510 META on an inverted microscope, with a 63× (1.4 NA) oil-immersion objective lens utilizing four laser lines (405 nm, 488 nm, 543 nm, 633 nm).
Mouse recombinant ShhN purified protein was purchased from R&D Systems (#464-SH-025). SAG, SANT-2, and GANT61 were purchased from Axxora (#ALX-270-426, #ALX-270-436, #ALX-270-482; Axxora, LLC, San Diego, Calif.). SANT-1 was obtained from Tocris Bioscience (#1974). DMSO was from Sigma Aldrich (D2650). Purmorphamine was from Calbiochem (#540220). […] AcpS, Texas Red-CoA, and Alexa633-CoA were prepared as described previously (Zhou et al., 130 J. Am. Chem. Soc. 9925-30 (2008)).

[2] = system: UV-irradiated Ptch1^+/− mice; conditions: prolonged systemic treatment; cited from earlier work
Gli1 = biological target: T2, Gli1 (Homo sapiens, UniProt P08151); conditions: cited from earlier work
T2 sequence (P08151 1-1106): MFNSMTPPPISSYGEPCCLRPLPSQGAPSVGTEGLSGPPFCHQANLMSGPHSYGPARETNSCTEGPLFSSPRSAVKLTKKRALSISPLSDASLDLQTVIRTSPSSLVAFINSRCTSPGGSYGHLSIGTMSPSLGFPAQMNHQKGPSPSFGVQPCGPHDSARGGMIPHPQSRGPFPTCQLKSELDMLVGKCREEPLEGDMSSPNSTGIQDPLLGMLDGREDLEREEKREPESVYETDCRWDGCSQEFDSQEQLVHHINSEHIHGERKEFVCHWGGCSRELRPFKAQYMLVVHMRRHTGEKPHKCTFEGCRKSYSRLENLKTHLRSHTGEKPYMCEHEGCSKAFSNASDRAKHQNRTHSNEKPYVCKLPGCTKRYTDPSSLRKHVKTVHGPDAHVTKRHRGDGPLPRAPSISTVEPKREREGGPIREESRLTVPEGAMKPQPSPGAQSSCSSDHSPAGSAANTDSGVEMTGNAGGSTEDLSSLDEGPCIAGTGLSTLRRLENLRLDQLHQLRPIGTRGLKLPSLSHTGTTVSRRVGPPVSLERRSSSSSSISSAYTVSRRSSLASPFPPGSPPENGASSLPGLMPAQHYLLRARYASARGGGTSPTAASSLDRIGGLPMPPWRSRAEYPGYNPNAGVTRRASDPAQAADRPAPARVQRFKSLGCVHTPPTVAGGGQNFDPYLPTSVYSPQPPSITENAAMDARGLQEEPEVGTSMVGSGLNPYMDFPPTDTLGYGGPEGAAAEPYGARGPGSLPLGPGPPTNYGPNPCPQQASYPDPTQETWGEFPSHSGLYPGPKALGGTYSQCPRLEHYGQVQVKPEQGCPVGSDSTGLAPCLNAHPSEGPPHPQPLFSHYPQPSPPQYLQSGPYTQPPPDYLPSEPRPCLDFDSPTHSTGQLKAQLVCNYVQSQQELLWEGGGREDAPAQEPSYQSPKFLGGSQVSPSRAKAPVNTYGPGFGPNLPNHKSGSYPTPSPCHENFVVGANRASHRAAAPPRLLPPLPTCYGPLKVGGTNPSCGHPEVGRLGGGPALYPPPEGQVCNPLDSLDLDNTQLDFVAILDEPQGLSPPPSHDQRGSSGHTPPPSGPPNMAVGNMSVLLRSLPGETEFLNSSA

Hh signaling = assay: Gli-luciferase assay (Ptch1-promoter driven luciferase reporter); type: cell-based, mouse; conditions: NIH/3T3 cells, RNAi knock down of suFU; FIG. 3
Experimental: Cells were plated at a density of 5×10^4 per well in 24-well plates 18 hr prior to transfection. DNA transfection was performed using Lipofectamine™ 2000 transfection reagent (Invitrogen, #11668); the DNA introduced in each well included 100 ng CMV driven Renilla luciferase construct, 300 ng Ptch1 promoter-driven firefly luciferase construct, and 400 ng of each shRNA construct or a PBS plasmid as a control. Cells were grown for two days; then the medium was changed to DMEM containing 0.5% BCS and proteins/compounds indicated in the text. Cells were cultured for an additional 48 hr, tryspinized, lysed and assayed using a Promega Dual Luciferase Reporter Essay System Kit (E1910). Renilla luciferase signal was used to normalize the firefly luciferase signal. The RNAi efficiency was measured as previous described (Varjosalo et al., 2006). In all luciferase assays, every condition was repeated in quadruplicate wells and experiments were repeated at least three times.
Mouse recombinant ShhN purified protein was purchased from R&D Systems (#464-SH-025). SAG, SANT-2, and GANT61 were purchased from Axxora (#ALX-270-426, #ALX-270-436, #ALX-270-482; Axxora, LLC, San Diego, Calif.). SANT-1 was obtained from Tocris Bioscience (#1974). DMSO was from Sigma Aldrich (D2650). Purmorphamine was from Calbiochem (#540220). […]

SmoA1 = conditions: cited from earlier work
Smo [3] = biological target: Smo (Mus musculus, UniProt P56726); conditions: cited from earlier work
Sequence of Smo (Mus musculus, UniProt P56726) (P56726 33-793): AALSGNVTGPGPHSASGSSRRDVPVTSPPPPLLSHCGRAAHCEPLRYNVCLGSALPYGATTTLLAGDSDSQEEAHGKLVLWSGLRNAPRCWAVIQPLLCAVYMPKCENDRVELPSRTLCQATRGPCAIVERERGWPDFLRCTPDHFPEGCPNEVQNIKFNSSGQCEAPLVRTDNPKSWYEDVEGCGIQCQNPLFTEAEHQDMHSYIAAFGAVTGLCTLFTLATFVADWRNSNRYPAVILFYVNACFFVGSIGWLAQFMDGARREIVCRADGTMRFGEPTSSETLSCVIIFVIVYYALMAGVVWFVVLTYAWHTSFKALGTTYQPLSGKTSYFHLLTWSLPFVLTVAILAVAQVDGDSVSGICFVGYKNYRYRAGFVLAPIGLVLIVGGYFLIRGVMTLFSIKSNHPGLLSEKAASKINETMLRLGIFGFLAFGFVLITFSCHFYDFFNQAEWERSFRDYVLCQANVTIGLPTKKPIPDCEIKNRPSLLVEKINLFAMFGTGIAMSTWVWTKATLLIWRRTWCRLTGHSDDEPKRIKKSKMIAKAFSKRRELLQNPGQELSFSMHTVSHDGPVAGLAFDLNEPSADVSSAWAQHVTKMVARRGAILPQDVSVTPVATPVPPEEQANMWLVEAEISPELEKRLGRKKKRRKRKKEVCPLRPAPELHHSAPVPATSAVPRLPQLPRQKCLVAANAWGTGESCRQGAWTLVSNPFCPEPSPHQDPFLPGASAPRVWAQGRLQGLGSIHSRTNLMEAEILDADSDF

SMILES | Smo translocation to the primary cilium, agent applied alone (Smo [1]) | ShhN-dependent translocation of Smo to the primary cilium, antagonist plus ShhN (Smo [1]) | further results
CC(C)CCC[C@](C)(O)[C@H]1CC[C@H]2[C@@H]3CC=C4C[C@@H](O)CC[C@]4(C)[C@H]3CC[C@@]21C [20-OHC, 20α-hydroxycholesterol] | Smo translocated to the primary cilium |  | 
CC1=C2C[C@H]3[C@@H](CC=C4C[C@@H](O)CC[C@@]43C)[C@@H]2CC[C@]12O[C@@H]1C[C@H](C)CN[C@H]1[C@H]2C [cyclopamine] | drove Smo to the primary cilium |  | Tumor formation [2]: significantly diminish tumor formation
CN(C)c1ccccc1CN1CCCN(Cc2ccccc2N(C)C)C1c1ccncc1 [GANT61] | do not induce obvious localization change of Smo | abrogate the ShhN-dependent translocation of Smo to the primary cilium | Gli1 binding to DNA (Gli1): inhibits Gli1 binding to DNA; Gli activity when the endogenous Gli antagonist suFU was knocked down (Hh signaling): inhibited Gli activity
Cc1nn(-c2ccccc2)c(C)c1/C=N/N1CCN(Cc2ccccc2)CC1 [SANT-1] | do not induce obvious localization change of Smo | abrogate the ShhN-dependent translocation of Smo to the primary cilium | Inhibition of SmoA1 activity, dose relative to wild-type Smo (SmoA1): at a comparable dose to that required to inhibit wild-type Smo; Competition for cyclopamine binding of Smo (Smo [3]): compete for cyclopamine binding of Smo
c1ccc2c(Oc3nc(Nc4ccc(N5CCOCC5)cc4)c4ncn(C5CCCCC5)c4n3)cccc2c1 [purmorphamine] | Smo translocated to the primary cilium |  | 
CNC1CCC(N(Cc2cccc(-c3ccncc3)c2)C(=O)c2sc3ccccc3c2Cl)CC1 (centres unmarked) [SAG] | Smo translocated to the primary cilium |  | 
CCOc1cc(C(=O)Nc2ccc(Cl)c(-c3nc4ccccc4[nH]3)c2)cc(OCC)c1OCC [SANT-2] | do not induce obvious localization change of Smo | abrogate the ShhN-dependent translocation of Smo to the primary cilium | Inhibition of SmoA1 activity, dose relative to wild-type Smo (SmoA1): at a comparable dose to that required to inhibit wild-type Smo; Competition for cyclopamine binding of Smo (Smo [3]): compete for cyclopamine binding of Smo
